How the values were obtained:
[1] = system: Pseudomonas aeruginosa PAO1; assay: Mouse model of respiratory tract infection induced by Pseudomonas aeruginosa PAO1, bacterial load; type: in vivo, mice; settings: day 5 post infection, I-A 185 mg/kg i.p., ciprofloxacin 2 mg/kg i.p., once a day
Procedure: The vehicle (physiological buffer) is used as a control and is administered under the same conditions.
In each group, the bacterial load in the blood and lungs is assessed on day 5 post infection.
Leukopenia is induced by intraperitoneal injections of cyclophosphamide 4 days and 1 day before infection, with doses of 150 mg/kg and 100 mg/kg, respectively. P. aeruginosa PAO1 was obtained from ATCC. One vial is thawed and diluted in sterile PBS on the day of infection.
Bacterial load is assessed in blood and lungs on day 5. Quantitative cultures on agar gel are performed during 24 hours of incubation at 37° C. Viable bacterial colony counts are expressed as Log 10 CFU per mL of blood or per gram of organ.

Escherichia coli = assay: Non-lethal model of Escherichia coli induced pneumonia, bacterial culture in the spleen; type: in vivo, BALB/c mice; settings: for bacteria in the spleen: pre-treatment 185 mg/kg
Procedure: The purpose of this study is to evaluate the effect of pre-treatment, with an NAD precursor, on the spread of bacterial infection to the spleen in a mouse model of non-lethal Escherichia coli (E. coli) induced pneumonia.
The administration of the compound at 185 mg/kg and the vehicle (physiological buffer) is performed intraperitoneally and/or intratracheally.
The compound of formula I-A (white powder) is dissolved in the vehicle. The solution is used at room temperature for a maximum of 1 day and freshly prepared for each new experiment.
Immediately before use, the E. coli culture was washed twice with 0.9% NaCl. After the second wash, the pellet was re-suspended in sterile saline and the dose calibrated by nephelometry.
Female BALB/c mice (20-24 g) were then inoculated using intratracheal insertion of a gavage needle (24 G) for injection of 75 μL of the bacterial suspension.
The compound of formula I-A and the vehicle are administered to the animals intraperitoneally and/or intratracheally. The injection of the compound of formula I-A is performed 24 hours prior to the infection with Escherichia coli. Simulated animals are given a physiological buffer by intraperitoneal administration.
At 24 hours, 48 hours, and 72 hours postoperatively, spleens from sacrificed animals were weighed and homogenized in 1 mL of saline. These solutions were then used for quantitative agar gel cultures during 24 hours of incubation at 37° C. Viable bacterial colony counts are expressed as Log 10 CFU per gram of organ.

[2] = system: caecal ligation and puncture (LPC) induced sepsis; assay: Caecal ligation and puncture (LPC) induced sepsis model; type: in vivo, mice; settings: for survival rate: compared with the control group; for Number of surviving mice: 185 mg/kg i.p. once daily; for bacterial load in the blood (bacterial DNA 16S by RT-PCR): 24 hours after LPC; for bacterial load in the blood (bacterial DNA 16S by RT-PCR) / clinical score (murine sepsis score): compared to the control group; for clinical score (murine sepsis score): after LPC at 24, 48, 72 and 96 hours; for temperature after LPC: rectal temperature, 24 hours after surgery
Procedure: The purpose of this study is to evaluate the effect of administration of compounds according to the invention (I-A and I-B) on the survival rate of mice in a caecal ligation and puncture (LPC) induced sepsis model.
The study consists of creating a sepsis model in mice by caecal ligation and puncture (LPC) and evaluating the impact of compounds I-A and I-B on the development of sepsis for 4 days.
The test compounds are administered at 185 mg/kg, intraperitoneally, immediately after the LPC procedure, and then once daily at 24, 48, and 72 hours. The remaining mice are euthanized at 96 hours post-LPC. Vehicle (physiological buffer) is used as a control and administered under the same conditions.
Mice are anesthetized with 3% Vetoflurane. A laparotomy is performed to exteriorize the caecum. For induction of medium grade sepsis, the caecum is ligated between the distal pole and the base of the caecum. A through puncture with a 21-gauge needle is performed. A small amount of excreta is extruded from the mesenteric and antimesenteric penetration holes to ensure patency. The caecum is repositioned over the abdominal cavity. The peritoneum, fascia, abdominal musculature and then the skin are closed by applying simple sutures. The animals are resuscitated by injecting pre-warmed normal saline (37° C.; 5 ml per 100 g body weight) subcutaneously.
Administration of Compound I-A at 185 mg/kg, Compound I-B at 185 mg/kg and vehicle (physiological buffer) is performed intraperitoneally immediately after LPC surgery and then once daily at 24, 48 and 72 hours post LPC.
Survival is assessed every 12 hours for the first two days, then once a day until euthanasia.
Rectal temperature is checked every 2 to 4 hours for the first day, then twice for the second day.
These two parameters are monitored once a day.
The clinical score is defined according to the criteria defined in Table 3:
24 hours after surgery, mice were anesthetized with Vetoflurane and blood was collected from the retroorbital sinus to quantify the bacterial load. Bacterial DNA (16S) is extracted and quantified by RT-PCR.

SMILES	reduction of blood bacterial load compared to the vehicle group [1]	pulmonary bacterial load ([1]; compared with the vehicle group)	percentage of animals with bacteria in the spleen (Escherichia coli; after 24 hours, compared to the control group)	percentage of positive bacterial culture in the spleen (Escherichia coli; pre-treatment 185 mg/kg 24 hours prior to infection, intraperitoneal administration, compared to untreated mice (control))	bacteria in the spleen (Escherichia coli; 48 h after intraperitoneal administration)	bacteria in the spleen (Escherichia coli; 72 h after intratracheal administration)	spread of bacteria from the lungs to the spleen (Escherichia coli; pre-treatment, intraperitoneal and/or intratracheal administration)	survival rate ([2]; 185 mg/kg i.p.)	Number of surviving mice ([2]; 24 h after LPC)	bacterial load in the blood (bacterial DNA 16S by RT-PCR) [2]	Number of surviving mice ([2]; 48 h after LPC)	Number of surviving mice ([2]; 72 h after LPC)	Number of surviving mice ([2]; 96 h after LPC)	clinical score (murine sepsis score) [2]	temperature after LPC ([2]; 185 mg/kg i.p.)	weight loss ([2]; after LPC over 24-96 hours, 185 mg/kg i.p.)
NC(=O)c1ccc[n+]([C@@H]2O[C@H](COP(=O)([O-])O)[C@@H](O)[C@H]2O)c1 [Compound I-A]	approximately 2 log	antibacterial effect	greatly reduced	reduced the percentage of positive cultures in the spleen	no bacteria were found in the spleen	no bacteria were found in the spleen	prevented the spread of bacteria from the lungs to the spleen	improved	12/12	significantly decreased	11/12	10/12	9/12	very significantly improved	regain their basal temperature	
NC(=O)c1ccc[n+]([C@H]2O[C@H](COP(=O)([O-])O)[C@@H](O)[C@H]2O)c1 [Compound I-B]								improved	12/12	significantly decreased	9/12	8/12	6/12	very significantly improved	regain their basal temperature	the weight loss is less
